# Experimental data taken from patent publication US20220281848A1, “PYRAZOLE-SUBSTITUTED PYRROLIDINONES AS HERBICIDES” (FMC Corporation, priority 2019, published 2022).
# System: plants
# Assay: Test D pre-emergence, other plants of Tables D1 and D3
# Type: in vivo
# Conditions: preemergent, 20 DAA
# In short: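 Damage was rated visually from 0 (none) to 100 (total), at 20 DAA for pre-emergence and 15 d for post-emergence. Plants grew from safener-treated seed in a glasshouse at 24/18° C. or 20/16° C. day/night, 65% humidity, watered twice daily.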
structure (smiles),measurement,setting,value
CN1CC(c2cc(C(F)(F)F)n(C)n2)C(C(=O)Nc2cccc(F)c2C(F)(F)F)C1=O (racemic) [Compound 19],"damage to plant (100=total damage to plant; 0=no damage to plant), ABUTH",rate 15,0
same,"damage to plant (100=total damage to plant; 0=no damage to plant), ABUTH",rate 30,0
same,"damage to plant (100=total damage to plant; 0=no damage to plant), ABUTH",rate 60,0
same,"damage to plant (100=total damage to plant; 0=no damage to plant), ABUTH",rate 130,0
same,"damage to plant (100=total damage to plant; 0=no damage to plant), ABUTH",rate 250,0
same,"damage to plant (100=total damage to plant; 0=no damage to plant), ABUTH",rate 500,10
same,"damage to plant (100=total damage to plant; 0=no damage to plant), AMARE",rate 15,0
same,"damage to plant (100=total damage to plant; 0=no damage to plant), AMARE",rate 30,0
same,"damage to plant (100=total damage to plant; 0=no damage to plant), AMARE",rate 60,0
same,"damage to plant (100=total damage to plant; 0=no damage to plant), AMARE",rate 130,0
same,"damage to plant (100=total damage to plant; 0=no damage to plant), AMARE",rate 250,0
same,"damage to plant (100=total damage to plant; 0=no damage to plant), AMARE",rate 500,0
same,"damage to plant (100=total damage to plant; 0=no damage to plant), BIDPI",rate 15,0
same,"damage to plant (100=total damage to plant; 0=no damage to plant), BIDPI",rate 30,0
same,"damage to plant (100=total damage to plant; 0=no damage to plant), BIDPI",rate 60,0
same,"damage to plant (100=total damage to plant; 0=no damage to plant), BIDPI",rate 130,0
same,"damage to plant (100=total damage to plant; 0=no damage to plant), BIDPI",rate 250,0
same,"damage to plant (100=total damage to plant; 0=no damage to plant), BIDPI",rate 500,0
same,"damage to plant (100=total damage to plant; 0=no damage to plant), BRAPL",rate 15,0
same,"damage to plant (100=total damage to plant; 0=no damage to plant), BRAPL",rate 30,40
same,"damage to plant (100=total damage to plant; 0=no damage to plant), BRAPL",rate 60,70
same,"damage to plant (100=total damage to plant; 0=no damage to plant), BRAPL",rate 130,80
same,"damage to plant (100=total damage to plant; 0=no damage to plant), BRAPL",rate 250,80
same,"damage to plant (100=total damage to plant; 0=no damage to plant), BRAPL",rate 500,90
same,"damage to plant (100=total damage to plant; 0=no damage to plant), CYPES",rate 15,0
same,"damage to plant (100=total damage to plant; 0=no damage to plant), CYPES",rate 30,0
same,"damage to plant (100=total damage to plant; 0=no damage to plant), CYPES",rate 60,0
same,"damage to plant (100=total damage to plant; 0=no damage to plant), CYPES",rate 130,0
same,"damage to plant (100=total damage to plant; 0=no damage to plant), CYPES",rate 250,0
same,"damage to plant (100=total damage to plant; 0=no damage to plant), CYPES",rate 500,0
same,"damage to plant (100=total damage to plant; 0=no damage to plant), DIGSA",rate 15,70
same,"damage to plant (100=total damage to plant; 0=no damage to plant), DIGSA",rate 30,90
same,"damage to plant (100=total damage to plant; 0=no damage to plant), DIGSA",rate 60,90
same,"damage to plant (100=total damage to plant; 0=no damage to plant), DIGSA",rate 130,90
same,"damage to plant (100=total damage to plant; 0=no damage to plant), DIGSA",rate 250,90
same,"damage to plant (100=total damage to plant; 0=no damage to plant), DIGSA",rate 500,100
same,"damage to plant (100=total damage to plant; 0=no damage to plant), ECHCG",rate 15,0
same,"damage to plant (100=total damage to plant; 0=no damage to plant), ECHCG",rate 30,20
same,"damage to plant (100=total damage to plant; 0=no damage to plant), ECHCG",rate 60,80
same,"damage to plant (100=total damage to plant; 0=no damage to plant), ECHCG",rate 130,90
same,"damage to plant (100=total damage to plant; 0=no damage to plant), ECHCG",rate 250,90
same,"damage to plant (100=total damage to plant; 0=no damage to plant), ECHCG",rate 500,90
same,"damage to plant (100=total damage to plant; 0=no damage to plant), ELEIN",rate 15,0
same,"damage to plant (100=total damage to plant; 0=no damage to plant), ELEIN",rate 30,0
same,"damage to plant (100=total damage to plant; 0=no damage to plant), ELEIN",rate 60,0
same,"damage to plant (100=total damage to plant; 0=no damage to plant), ELEIN",rate 130,0
same,"damage to plant (100=total damage to plant; 0=no damage to plant), ELEIN",rate 250,0
same,"damage to plant (100=total damage to plant; 0=no damage to plant), ELEIN",rate 500,0
same,"damage to plant (100=total damage to plant; 0=no damage to plant), EPHHL",rate 15,0
same,"damage to plant (100=total damage to plant; 0=no damage to plant), EPHHL",rate 30,0
same,"damage to plant (100=total damage to plant; 0=no damage to plant), EPHHL",rate 60,0
same,"damage to plant (100=total damage to plant; 0=no damage to plant), EPHHL",rate 130,0
same,"damage to plant (100=total damage to plant; 0=no damage to plant), EPHHL",rate 250,0
same,"damage to plant (100=total damage to plant; 0=no damage to plant), EPHHL",rate 500,0
same,"damage to plant (100=total damage to plant; 0=no damage to plant), GLXMA",rate 15,0
same,"damage to plant (100=total damage to plant; 0=no damage to plant), GLXMA",rate 30,0
same,"damage to plant (100=total damage to plant; 0=no damage to plant), GLXMA",rate 60,0
same,"damage to plant (100=total damage to plant; 0=no damage to plant), GLXMA",rate 130,0
same,"damage to plant (100=total damage to plant; 0=no damage to plant), GLXMA",rate 250,0
same,"damage to plant (100=total damage to plant; 0=no damage to plant), GLXMA",rate 500,0
same,"damage to plant (100=total damage to plant; 0=no damage to plant), IPOHE",rate 15,0
same,"damage to plant (100=total damage to plant; 0=no damage to plant), IPOHE",rate 30,0
same,"damage to plant (100=total damage to plant; 0=no damage to plant), IPOHE",rate 60,0
same,"damage to plant (100=total damage to plant; 0=no damage to plant), IPOHE",rate 130,0
same,"damage to plant (100=total damage to plant; 0=no damage to plant), IPOHE",rate 250,0
same,"damage to plant (100=total damage to plant; 0=no damage to plant), IPOHE",rate 500,0
same,"damage to plant (100=total damage to plant; 0=no damage to plant), ORYSA",rate 15,0
same,"damage to plant (100=total damage to plant; 0=no damage to plant), ORYSA",rate 30,0
same,"damage to plant (100=total damage to plant; 0=no damage to plant), ORYSA",rate 60,0
same,"damage to plant (100=total damage to plant; 0=no damage to plant), ORYSA",rate 130,0
same,"damage to plant (100=total damage to plant; 0=no damage to plant), ORYSA",rate 250,0
same,"damage to plant (100=total damage to plant; 0=no damage to plant), ORYSA",rate 500,0
same,"damage to plant (100=total damage to plant; 0=no damage to plant), PANMI",rate 15,0
same,"damage to plant (100=total damage to plant; 0=no damage to plant), PANMI",rate 30,0
same,"damage to plant (100=total damage to plant; 0=no damage to plant), PANMI",rate 60,0
same,"damage to plant (100=total damage to plant; 0=no damage to plant), PANMI",rate 130,0
same,"damage to plant (100=total damage to plant; 0=no damage to plant), PANMI",rate 250,0
same,"damage to plant (100=total damage to plant; 0=no damage to plant), PANMI",rate 500,0
same,"damage to plant (100=total damage to plant; 0=no damage to plant), SETFA",rate 15,0
same,"damage to plant (100=total damage to plant; 0=no damage to plant), SETFA",rate 30,60
same,"damage to plant (100=total damage to plant; 0=no damage to plant), SETFA",rate 60,80
same,"damage to plant (100=total damage to plant; 0=no damage to plant), SETFA",rate 130,90
same,"damage to plant (100=total damage to plant; 0=no damage to plant), SETFA",rate 250,90
same,"damage to plant (100=total damage to plant; 0=no damage to plant), SETFA",rate 500,90
same,"damage to plant (100=total damage to plant; 0=no damage to plant), SORVU",rate 15,0
same,"damage to plant (100=total damage to plant; 0=no damage to plant), SORVU",rate 30,0
same,"damage to plant (100=total damage to plant; 0=no damage to plant), SORVU",rate 60,0
same,"damage to plant (100=total damage to plant; 0=no damage to plant), SORVU",rate 130,0
same,"damage to plant (100=total damage to plant; 0=no damage to plant), SORVU",rate 250,0
same,"damage to plant (100=total damage to plant; 0=no damage to plant), SORVU",rate 500,0
